Several values for one entry are separate records, joined by “and”; a condition that tells them apart may be missing. Equal values may be shown once. Entries after “also recorded” stand apart in the source; their conditions may differ.
Columns and labels:
[1] = set-up: method as in PMID 3306216; conditions: cited from earlier work
[2] = target: T1, R103E-SWELL1 expressing HEK-293 cells (R103E O/E) (Homo sapiens, UniProt Q8IWT6, R103E); test: ICl,SWELL inhibition in SWELL1-R103E overexpressing cells, patch-clamp; format: cell-based
T1 construct: P2A:EGFP (C); host or cells: HEK-293, Lipofectamine 2000, co-transfected with CMV-Cre; EGFP+ cells recorded
T1 sequence (Q8IWT6 whole entry R103E): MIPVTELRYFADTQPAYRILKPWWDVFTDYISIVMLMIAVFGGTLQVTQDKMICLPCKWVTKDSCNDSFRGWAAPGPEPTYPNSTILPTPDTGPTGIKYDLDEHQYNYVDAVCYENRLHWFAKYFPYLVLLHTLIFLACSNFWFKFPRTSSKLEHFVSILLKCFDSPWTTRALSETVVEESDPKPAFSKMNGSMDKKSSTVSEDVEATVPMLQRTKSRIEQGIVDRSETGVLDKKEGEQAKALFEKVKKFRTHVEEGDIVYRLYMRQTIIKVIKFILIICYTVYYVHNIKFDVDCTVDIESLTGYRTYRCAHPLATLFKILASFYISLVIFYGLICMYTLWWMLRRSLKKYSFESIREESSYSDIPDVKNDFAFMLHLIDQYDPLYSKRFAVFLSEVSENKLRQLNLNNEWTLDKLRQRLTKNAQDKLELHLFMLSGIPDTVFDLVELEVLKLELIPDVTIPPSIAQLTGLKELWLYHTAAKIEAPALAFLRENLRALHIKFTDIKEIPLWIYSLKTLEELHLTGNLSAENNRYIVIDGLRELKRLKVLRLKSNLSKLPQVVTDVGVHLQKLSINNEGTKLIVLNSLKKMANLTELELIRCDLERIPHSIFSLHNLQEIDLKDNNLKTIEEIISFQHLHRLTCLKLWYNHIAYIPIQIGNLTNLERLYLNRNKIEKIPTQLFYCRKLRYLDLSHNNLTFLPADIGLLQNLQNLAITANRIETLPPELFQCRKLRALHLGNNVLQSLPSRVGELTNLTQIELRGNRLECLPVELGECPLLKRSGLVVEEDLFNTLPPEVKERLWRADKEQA
Description: See also Fig. 6 for a schematic representation. […] For SWELL1-R103E overexpression experiments, HEK-293 cells were transfected with either control Cre plasmid (CMV-Cre, McDonnell Genome Institute in Washington University in St. Louis) or Cre plus R103E-GFP (CAG-LoxP-stop-LoxP-SWELL1-R103E/3XFlag:P2A:EGFP, Vector Biolabs) plasmid using Lipofectamine 2000 as per the manufacturer’s protocol. SWELL1-R103E expressing HEK-293 cells were identified by EGFP + fluorescence.

[3] = tested on: murine islets; test: GSIS perifusion of palmitate-treated murine islets; format: cell-based, mouse; conditions: 10 µM for 4 days prior to and during 1 mM palmitate 16 h, washed off during GSIS
[4] = Tolerability of chronic i.p. dosing; format: in vivo, mouse; conditions: daily i.p. injections for up to 8 weeks
Experimental: (§1) All compounds were dissolved in Kolliphor® EL (Sigma, #C5135).

[5] = tested on: insulin-AKT2-AS160 signaling in 3T3-F442A cells; test: Insulin-stimulated AKT2-AS160 signaling western blot; format: cell-based, murine; conditions: 96 h
Experimental: Adipocytes were washed twice in ice-cold phosphate buffer saline and lysed in RIPA buffer (150 mM NaCl, 20 mM HEPES, 1% NP-40, 5 mM EDTA, pH 7.4) with proteinase/phosphatase inhibitors (Roche). The cell lysate was further sonicated in 10 s cycle intervals 2–3 times and centrifuged at 18,407×g for 30 min at 4 °C and repeated one more time to remove the excess fat. The supernatant was collected and further estimated for protein concentration using a DC protein assay kit (Bio-Rad). Fat and liver tissues were homogenized and suspended in RIPA buffer with inhibitors and further processed in a similar fashion as described above. HUVECs were also prepared in a similar fashion except the lysates were spun only once to remove the cells debris to obtain the clear supernatant. For islets, either human or mouse islets were washed twice with phosphate buffer saline (PBS) and lysed using RIPA buffer containing protease and phosphatase inhibitors. The lysate was further clarified by freezing in liquid nitrogen for about 10 s for three cycles. The supernatant was collected from the whole lysate centrifuged at 16,260×g for 20 min at 4 °C. […] For soleus muscle, the tissue was homogenized in a Bullet Blender homogenizer (Speed-9, Time-3 mins) in 8 volumes of ice-cold muscle homogenization buffer (50 mM Tris, 25 mM NaCl, 0.2% Nonidet P-40, 5 mM EGTA, 2.5 mM EDTA, 20 mM NaF, 20 mM Na4P2O7·10H2O, 2 mM Na3VO4, pH 7.4) supplemented with protease/phosphatase inhibitor (Roche). The homogenized lysate was centrifuged two times at 18,500×g for 20 min at 4 °C and supernatant was collected for protein estimation. Protein samples were further prepared by boiling in 2X or 4X Laemmli buffer. Approximately 10–60 µg of total protein was loaded in 4–15% gradient gel (Bio-Rad) for separation and protein transfer was carried out onto the PVDF membranes (Bio-Rad). […] The images were further analyzed for band intensities using ImageJ software. […]

[6] = tested on: T2, SWELL1 protein in adipose tissue; test: SWELL1 protein in adipose tissue of treated T2D mice; format: in vivo, mouse
T2 construct: from tissue; host or cells: eWAT of HFD-fed C57BL/6 mice; inguinal fat of KKA^y mice
Experimental: as §1
(§2) Adipocytes were washed twice in ice-cold phosphate buffer saline and lysed in RIPA buffer (150 mM NaCl, 20 mM HEPES, 1% NP-40, 5 mM EDTA, pH 7.4) with proteinase/phosphatase inhibitors (Roche). The cell lysate was further sonicated in 10 s cycle intervals 2–3 times and centrifuged at 18,407×g for 30 min at 4 °C and repeated one more time to remove the excess fat. The supernatant was collected and further estimated for protein concentration using a DC protein assay kit (Bio-Rad). Fat and liver tissues were homogenized and suspended in RIPA buffer with inhibitors and further processed in a similar fashion as described above. HUVECs were also prepared in a similar fashion except the lysates were spun only once to remove the cells debris to obtain the clear supernatant. For islets, either human or mouse islets were washed twice with phosphate buffer saline (PBS) and lysed using RIPA buffer containing protease and phosphatase inhibitors. The lysate was further clarified by freezing in liquid nitrogen for about 10 s for three cycles. The supernatant was collected from the whole lysate centrifuged at 16,260×g for 20 min at 4 °C. […] The images were further analyzed for band intensities using ImageJ software. […]

[7] = tested on: T3, SWELL1 protein; test: SWELL1 protein in skeletal muscle and liver of treated T2D mice; format: in vivo, mouse
T3 construct: from tissue; host or cells: soleus muscle of HFD-T2D mice; liver of T2D KKA^y mice
Experimental: as §2

[8] = tested on: T2D KKAy mice; test: Plasma adiponectin and FGF21 ELISA; format: in vivo, mouse; conditions: 5 mg/kg i.p. daily × 5 days, vs vehicle
Experimental: Plasma adiponectin and FGF21 levels were measured using Mouse Adiponectin/Acrp30 Quantikine ELISA (Bio-Techne R&D Systems, MRP300) and mouse/rat FGF21 ELISA (BioVendor R&D, RD291108200R) kits respectively, as per the manufacturer’s instructions.

[9] = tested on: T4, SWELL1 protein in 3T3-F442A preadipocytes; test: SWELL1 protein western blot in preadipocytes; format: cell-based, murine; conditions: 10 µM, 96 h
T4 construct: host or cells: 3T3-F442A preadipocytes and differentiated adipocytes (wild type)
Experimental: In the case of 3T3-F442A adipocytes, the WT and KO cells were treated with either vehicle (DMSO), 1 or 10 µM SN-40X (after 7–11 days of differentiation) for 96 h and then stimulated with 0 and 10 nM insulin/serum-containing media with vehicle (DMSO) or SN-40X for 15 min for SWELL1 detection. […] To simulate glucolipotoxicity, 8 mM sodium palmitate was dissolved in 18.4% fatty-acid free BSA at 37 °C in DMEM medium with 25 mM glucose to obtain a conjugation ratio of 1:3 palmitate:BSA[80].
as §2, with “supernatant.” for “supernatant. For islets, either human or mouse islets were washed twice with phosphate buffer saline (PBS) and lysed using RIPA buffer containing protease and phosphatase inhibitors. The lysate was further clarified by freezing in liquid nitrogen for about 10 s for three cycles. The supernatant was collected from the whole lysate centrifuged at 16,260×g for 20 min at 4 °C.”

For CCCCC1(C2CCCC2)Cc2cc(OCCCC(=O)O)c(Cl)c(Cl)c2C1=O (centres unmarked) [SN-401, 4-((2-butyl-6,7-dichloro-2-cyclopentyl-1-oxo-2,3-dihydro-1H-inden-5-yl)oxy)butanoic acid], the diuretic activity [1] is listed as “minimal diuretic activity”, the IC50 [2] is listed as 6 µM and the “glucose-stimulated insulin secretion after palmitate” value [3] is listed as “normalized”. The tolerability [4] was “no overt signs of toxicity”, the “insulin-stimulated levels of pAS160” value ([5]; 500 nM, WT adipocytes) was “enhanced” and the “insulin-stimulated levels of pAKT2” value ([5]; 10 µM preadipocytes, 500 nM adipocytes) was “enhanced”. For the same compound, the “effects on insulin-AKT2-AS160 signaling in SWELL1 KO adipocytes” value ([5]; SWELL1 KO 3T3-F442A adipocytes, 500 nM) was “absent”, the “SWELL1 expression in adipose tissue” value ([6]; HFD-fed T2D mice, 5 mg/kg i.p.) was “twofold” and the “SWELL1 expression in adipose tissue” value ([6]; KKAy T2D mice, 5 mg/kg i.p. × 5 days) was “threefold”. The “SWELL1 induction in skeletal muscle” value ([7]; HFD-T2D mice (18 weeks HFD), 5 mg/kg i.p. 4 days) was “trend toward SN-401 mediated SWELL1 induction”, the “hepatic SWELL1 protein” value ([7]; T2D KKAy mice, 5 mg/kg i.p. 5 days) was “does not induce” and the “serum FGF21 increase” value [8] was 2.8 fold and 3 fold. The serum adiponectin [8] was “unchanged; also recorded: no differences” and the SWELL1 protein expression [9] was “threefold”.

Reference: publication PMC8831520, “Small molecule SWELL1 complex induction improves glycemic control and nonalcoholic fatty liver disease in murine Type 2 diabetes” (Nature Communications, 2022)
